What all share (format): biochemical
Assay [1] has as its target MMP-9FL (full length Gelatinase B) (Homo sapiens, UniProt P14780). The experiment in a line: Thiopeptolide hydrolysis assay, MMP-9FL. Particulars: thiopeptolide substrate, HEPES pH 7.0, 22° C. From the text:
(§1) The assays measure the amount by which a test compound reduces the hydrolysis of a thiopeptolide substrate catalyzed by a matrix metalloproteinase enzyme. Such assays are described in detail by Ye et al., in Biochemistry, 1992;31(45):11231-11235, which is incorporated herein by reference.
(§2) Thiopeptolide substrates show virtually no decomposition or hydrolysis at or below neutral pH in the absence of a matrix metalloproteinase enzyme. A typical thiopeptolide substrate commonly utilized for assays is Ac-Pro-Leu-Gly-thioester-Leu-Leu-Gly-OEt. A 100 μL assay mixture will contain 50 mM of N-2-hydroxyethylpiperazine-N′-2-ethanesulfonic acid buffer (“HEPES”) at pH 7.0, 10 mM CaCl2, 100 μM thiopeptolide substrate, and 1 mM 5,5″-dithio-bis-(2-nitro-benzoic acid) (DTNB). The thiopeptolide substrate concentration may be varied from, for example, 10 to 800 μM to obtain Km and Kcat values. The change in absorbance at 405 nm is monitored on a Thermo Max microplate reader (Molecular Devices, Menlo Park, Calif.) at room temperature (22° C.). The calculation of the amount of hydrolysis of the thiopeptolide substrate is based on E412=13600 M^−1 cm^−1 for the DTNB-derived product 3-carboxy4-nitrothiophenoxide. Assays are carried out with and without matrix metalloproteinase inhibitor compounds, and the amount of hydrolysis is compared for a determination of inhibitory activity of the test compounds.
(§3) Several representative compounds have been evaluated for their ability to inhibit various matrix metalloproteinase enzymes. In Table I, MMP-1FL refers to full length interstitial collagenase; MMP-2FL refers to full length Gelatinase A; MMP-3CD refers to the catalytic domain of stromelysin-1; MMP-7FL refers to full length matrilysin; MMP-9FL refers to full length Gelatinase B; MMP-13CD refers to the catalytic domain of collagenase 3; and MMP-14CD refers to the catalytic domain of MMP-14. Test compounds were evaluated at various concentrations in order to determine their respective IC50 values, the micromolar concentration of compound required to cause a 50% inhibition of the catalytic activity of the respective enzyme.

Assay [2] has as its target MMP-3CD (catalytic domain of stromelysin-1) (Homo sapiens, UniProt P08254). The experiment in a line: Thiopeptolide hydrolysis assay, MMP-3CD. The settings on record: thiopeptolide substrate, MES pH 6.0.
From the text: as §1, §2, §3
It should be appreciated that the assay buffer used with MMP-3CD was 50 mM of 2-morpholinoethanesulfonic acid monohydrate (“MES”) at pH 6.0 rather than the HEPES buffer at pH 7.0 described above.

In assay [3] the target is T1, MMP-1FL (full length interstitial collagenase) (Homo sapiens, UniProt P03956).
T1 sequence (P03956 100-469): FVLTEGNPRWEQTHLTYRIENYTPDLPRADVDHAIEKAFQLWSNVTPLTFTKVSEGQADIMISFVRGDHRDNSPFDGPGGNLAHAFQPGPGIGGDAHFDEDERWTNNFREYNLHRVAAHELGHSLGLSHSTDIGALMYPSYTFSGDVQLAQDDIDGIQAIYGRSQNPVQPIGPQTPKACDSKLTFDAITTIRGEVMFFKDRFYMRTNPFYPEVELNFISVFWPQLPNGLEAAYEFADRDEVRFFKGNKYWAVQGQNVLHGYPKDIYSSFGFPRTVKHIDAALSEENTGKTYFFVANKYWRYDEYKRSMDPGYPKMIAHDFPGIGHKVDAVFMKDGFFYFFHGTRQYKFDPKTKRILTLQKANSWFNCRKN
The experiment in a line: Thiopeptolide hydrolysis assay, MMP-1FL. Particulars: thiopeptolide substrate, HEPES pH 7.0, 22° C.
From the text: as §1, §2, §3

Assay [4] deals with T2, MMP-2FL (full length Gelatinase A) (Homo sapiens, UniProt P08253).
T2 sequence (P08253 110-660): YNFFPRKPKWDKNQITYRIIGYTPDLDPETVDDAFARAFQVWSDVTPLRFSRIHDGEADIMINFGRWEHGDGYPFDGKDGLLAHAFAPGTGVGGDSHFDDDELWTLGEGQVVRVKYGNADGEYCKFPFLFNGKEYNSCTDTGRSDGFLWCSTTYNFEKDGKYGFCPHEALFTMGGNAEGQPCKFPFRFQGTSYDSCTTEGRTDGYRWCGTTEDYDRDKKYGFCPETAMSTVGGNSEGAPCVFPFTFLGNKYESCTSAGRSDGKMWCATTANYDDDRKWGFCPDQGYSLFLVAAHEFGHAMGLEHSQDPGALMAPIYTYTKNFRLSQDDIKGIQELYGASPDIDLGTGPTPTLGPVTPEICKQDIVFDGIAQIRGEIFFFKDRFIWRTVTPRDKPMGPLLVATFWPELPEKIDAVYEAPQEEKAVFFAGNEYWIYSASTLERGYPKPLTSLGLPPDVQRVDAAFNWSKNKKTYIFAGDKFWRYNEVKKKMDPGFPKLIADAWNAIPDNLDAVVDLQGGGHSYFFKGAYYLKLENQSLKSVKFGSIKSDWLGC
The experiment in a line: Thiopeptolide hydrolysis assay, MMP-2FL. The settings on record: thiopeptolide substrate, HEPES pH 7.0, 22° C.
From the text: as §1, §2, §3

For assay [5], the target named is T3, MMP-12CD (Homo sapiens, UniProt P39900).
T3 construct: MMP-12CD
T3 sequence (P39900 106-263 limits assumed): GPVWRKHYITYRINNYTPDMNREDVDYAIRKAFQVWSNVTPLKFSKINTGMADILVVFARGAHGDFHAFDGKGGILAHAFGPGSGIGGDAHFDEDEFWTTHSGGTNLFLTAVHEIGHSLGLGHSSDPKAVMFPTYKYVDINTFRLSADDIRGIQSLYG
Nature of the assay: Thiopeptolide hydrolysis assay, MMP-12CD. Particulars: thiopeptolide substrate, HEPES pH 7.0, 22° C.
From the text: as §1, §2, §3

Assay [6] has as its target MMP-14CD (catalytic domain of MMP-14) (Homo sapiens, UniProt P50281). The experiment in a line: Thiopeptolide hydrolysis assay, MMP-14CD. Particulars: thiopeptolide substrate, HEPES pH 7.0, 22° C.
From the text: as §1, §2, §3

For assay [7], the target named is T4, MMP-7FL (full length matrilysin) (Homo sapiens, UniProt P09237).
T4 sequence (P09237 95-267): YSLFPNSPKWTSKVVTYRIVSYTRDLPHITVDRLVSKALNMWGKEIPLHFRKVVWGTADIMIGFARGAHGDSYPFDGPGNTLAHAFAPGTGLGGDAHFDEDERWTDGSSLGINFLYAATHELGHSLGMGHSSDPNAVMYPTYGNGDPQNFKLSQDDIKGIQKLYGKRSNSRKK
The experiment in a line: Thiopeptolide hydrolysis assay, MMP-7FL. Particulars: thiopeptolide substrate, HEPES pH 7.0, 22° C.
From the text: as §1, §2, §3

Assay [8] addresses MMP-13CD (catalytic domain of collagenase 3) (Homo sapiens, UniProt P45452). Nature of the assay: Thiopeptolide hydrolysis assay, MMP-13CD. Particulars: thiopeptolide substrate, HEPES pH 7.0, 22° C.
From the text: as §1, §2, §3

MMP-3CD (catalytic domain of stromelysin-1), sequence (P08254 100-272 limits assumed): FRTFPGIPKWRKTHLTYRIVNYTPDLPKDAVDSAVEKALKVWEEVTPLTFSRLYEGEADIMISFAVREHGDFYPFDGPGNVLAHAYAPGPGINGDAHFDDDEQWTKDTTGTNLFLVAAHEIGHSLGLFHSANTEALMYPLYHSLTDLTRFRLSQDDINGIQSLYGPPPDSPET
MMP-9FL (full length Gelatinase B), sequence (P14780 94-707, species assumed): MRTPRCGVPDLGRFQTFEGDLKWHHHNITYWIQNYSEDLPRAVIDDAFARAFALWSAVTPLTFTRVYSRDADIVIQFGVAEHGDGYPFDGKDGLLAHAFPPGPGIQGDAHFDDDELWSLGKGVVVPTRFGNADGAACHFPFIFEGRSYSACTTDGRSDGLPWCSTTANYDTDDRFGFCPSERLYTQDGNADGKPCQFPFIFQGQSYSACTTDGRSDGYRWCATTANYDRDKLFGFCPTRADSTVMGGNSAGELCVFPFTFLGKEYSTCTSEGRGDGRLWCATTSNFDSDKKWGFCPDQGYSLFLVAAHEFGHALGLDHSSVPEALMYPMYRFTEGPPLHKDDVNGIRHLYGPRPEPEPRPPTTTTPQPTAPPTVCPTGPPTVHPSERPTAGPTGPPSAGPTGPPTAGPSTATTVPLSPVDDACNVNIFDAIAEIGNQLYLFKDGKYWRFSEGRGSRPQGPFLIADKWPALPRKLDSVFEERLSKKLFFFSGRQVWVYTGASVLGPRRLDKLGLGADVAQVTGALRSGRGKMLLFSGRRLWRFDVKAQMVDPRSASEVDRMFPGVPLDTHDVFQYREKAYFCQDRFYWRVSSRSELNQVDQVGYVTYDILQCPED

In the case of `CC1(C)SCCN(S(=O)(=O)c2ccc(-c3ccc(-c4ccccc4)cc3)cc2)[C@H]1C(=O)O` [Example 38, (S)-2,2-Dimethyl-4-([1,1′;4′,1″]terphenyl-4-sulfonyl)-thiomorpholine-3-carboxylic acid], the half-maximal inhibitory concentration (IC50) stood at 0.0032 µM in assay [1]; 0.00295 µM in assay [2]; 1.17 µM in assay [3]; 0.00135 µM in assay [4]; 0.001 µM in assay [5]; 0.0343 µM in assay [6]. Further, the IC50 in assay [7] came to 2.67 µM; in assay [8], 0.00145 µM.

With `CC1(C)SCCN(S(=O)(=O)c2ccc(-c3ccc(F)c(F)c3)cc2)[C@H]1C(=O)O` [Example 41, (S)-4-(3′,4′-Difluoro-biphenyl-4-sulfonyl)-2,2-dimethyl-thiomorpholine-3-carboxylic acid], the IC50 in assay [1] amounted to 6.65 µM; in assay [2], 0.054 µM; in assay [3], 9.7 µM; in assay [4] it was 0.23 µM; in assay [5], 0.0285 µM; in assay [6] it was 0.615 µM. Besides, the IC50 in assay [7] came to 92.5 µM; in assay [8], 0.3 µM.

Consider `CC1(C)SCCN(S(=O)(=O)c2ccc(-c3ccc(-c4ccccc4)c(F)c3)cc2)[C@H]1C(=O)O` [Example 53, (S)-4-(2′-Fluoro-[1,1′;4′,1″]terphenyl-4″-sulfonyl)-2,2-dimethyl-thiomorpholine-3-carboxylic acid], for which the half-maximal inhibitory concentration (IC50) in assay [1] came to 0.017 µM; in assay [2], 0.0072 µM; in assay [3], 3.15 µM; in assay [4], 0.0043 µM; in assay [5], 0.001 µM; in assay [6], 0.145 µM. The IC50 worked out at 1.85 µM in assay [7] and 0.0086 µM in assay [8].

“(S)-2,2-Dimethyl-4-(4-methylsulfanyl-biphenyl-4-sulfonyl)-thiomorpholine-3-carboxylic acid [Example 37]”: the IC50 in assay [1] came out at 0.069 µM; in assay [2], 0.00475 µM; in assay [3], 2.03 µM; in assay [4], 0.0025 µM; in assay [5] it was 0.001 µM; in assay [6], 0.036 µM. Further, the IC50 in assay [7] came out at 6.87 µM; in assay [8], 0.00305 µM.

As for `CCc1ccc(-c2ccc(S(=O)(=O)N3CCSC(C)(C)[C@@H]3C(=O)O)cc2)cc1` [Example 47, (S)-4-(4′-Ethyl-biphenyl-4-sulfonyl)-2,2-dimethyl-thiomorpholine-3-carboxylic acid], the IC50 in assay [1] was 0.14 µM; in assay [2], 0.0074 µM; in assay [3] it was 5.4 µM; in assay [4], 0.0061 µM; in assay [5], 0.00125 µM; in assay [7], 9 µM. Also, the midpoint of inhibition in assay [8], the IC50, lay at 0.01 µM.

Take `CC1(C)SCCN(S(=O)(=O)c2ccc(-c3ccc(F)cc3F)cc2)[C@H]1C(=O)O` [Example 39, (S)-4-(2′,4′-Difluoro-biphenyl-4-sulfonyl)-2,2-dimethyl-thiomorpholine-3-carboxylic acid]: the IC50 in assay [1] is 2.78 µM; in assay [2], 0.0285 µM; in assay [3] it was 3.25 µM; in assay [4], 0.115 µM; in assay [5] it was 0.013 µM; in assay [6], 0.67 µM. The IC50 turned out to be 25 µM in assay [7] and 0.16 µM in assay [8].

On to `CC1(C)SCCN(S(=O)(=O)c2ccc(-c3ccc4ccccc4c3)cc2)[C@H]1C(=O)O` [Example 36, (S)-2,2-Dimethyl-4-(4-naphthalen-2-yl-benzenesulfonyl)-thiomorpholine-3-carboxylic acid], for which the IC50 was 0.13 µM in assay [1]; 0.0104 µM in assay [2]; 10.8 µM in assay [3]; 0.00635 µM in assay [4]; 0.00113 µM in assay [5]; 0.0567 µM in assay [6]. Also, the IC50 in assay [7] is 31.7 µM; in assay [8], 0.0108 µM.

With `CC1(C)SCCN(S(=O)(=O)c2ccc(-c3ccc(Oc4ccccc4)cc3)cc2)[C@H]1C(=O)O` [Example 40, (S)-2,2-Dimethyl-4-(4′-phenoxy-biphenyl-4-sulfonyl)-thiomorpholine-3-carboxylic acid], the IC50 in assay [1] amounted to 2.2 µM; in assay [2], 0.0094 µM; in assay [4] it was 0.17 µM; in assay [5], 0.004 µM; in assay [6] it was 1.5 µM; in assay [7], 13 µM. The molecule further came in with an IC50 in assay [8] of 0.1 µM.

As to `CCOc1ccc(-c2ccc(S(=O)(=O)N3CCSC(C)(C)[C@@H]3C(=O)O)cc2)cc1` [Example 43, (S)-4-(4′-Ethoxy-biphenyl-4-sulfonyl)-2,2-dimethyl-thiomorpholine-3-carboxylic acid], the IC50 in assay [1] is 0.018 µM; in assay [2], 0.0038 µM; in assay [3], 7.95 µM; in assay [4], 0.0023 µM; in assay [5], 0.001 µM; in assay [6], 0.16 µM. The IC50 in assay [7] was determined as 70 µM; in assay [8] it was 0.0033 µM.

What is called IC50 is the concentration that inhibits the measured activity by half. High values mean weaker potency, low ones greater potency.
